Results as given in ChEMBL document CHEMBL2424595, “Substituted pyrrolo[2,3-d]pyrimidines as Cryptosporidium hominis thymidylate synthase inhibitors” (Bioorg Med Chem Lett, 2013).
Calls of active or inactive are those of the source. No cut-off for these calls is given here.

What was measured:
[1] = Inhibition of Cryptosporidium hominis thymidylate synthase
Cryptosporidium hominis = test: Inhibition of Cryptosporidium hominis DHFR
[2] = molecular target: Thymidylate synthase (Homo sapiens) (UniProt P04818); test: Inhibition of human thymidylate synthase
Thymidylate synthase (Homo sapiens), sequence (P04818 2-313 limits assumed): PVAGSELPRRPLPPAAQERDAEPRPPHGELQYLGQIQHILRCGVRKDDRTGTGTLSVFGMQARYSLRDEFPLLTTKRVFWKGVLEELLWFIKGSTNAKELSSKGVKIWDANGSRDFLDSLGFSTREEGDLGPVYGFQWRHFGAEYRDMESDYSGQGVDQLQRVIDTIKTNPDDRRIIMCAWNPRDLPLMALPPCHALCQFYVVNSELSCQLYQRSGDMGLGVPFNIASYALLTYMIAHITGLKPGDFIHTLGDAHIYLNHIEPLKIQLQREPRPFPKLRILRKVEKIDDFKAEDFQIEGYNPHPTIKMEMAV

| IC50 [1] | Structure (SMILES) | inhibition (Cryptosporidium hominis) | inhibition [2] | Ki [1] |
| --- | --- | --- | --- | --- |
| 2090 nM | Nc1nc2[nH]cc(CCc3ccc(C(=O)N[C@@H](CCC(=O)O)C(=O)O)cc3)c2c(=O)[nH]1 [PEMETREXED] |  |  |  |
| 31100 nM | Nc1nc2[nH]cc(CCCCCc3ccc(C(=O)N[C@@H](CCC(=O)O)C(=O)O)cc3)c2c(=O)[nH]1 |  |  |  |
| 2440 nM | Nc1nc2[nH]cc(CCCc3ccc(C(=O)N[C@@H](CCC(=O)O)C(=O)O)cc3)c2c(=O)[nH]1 |  |  |  |
| 30 nM | Nc1nc2[nH]cc(Cc3ccc(C(=O)N[C@@H](CCC(=O)O)C(=O)O)s3)c2c(=O)[nH]1 | Active | Active |  |

| Structure (SMILES) | IC50 [1] | inhibition (Cryptosporidium hominis) | inhibition [2] | Ki [1] |
| --- | --- | --- | --- | --- |
| Nc1nc2[nH]cc(Cc3ccc(C(=O)N[C@@H](CCC(=O)O)C(=O)O)cc3)c2c(=O)[nH]1 | 380 nM |  |  |  |
| Cc1[nH]c2nc(N)[nH]c(=O)c2c1Sc1ccc(C(=O)N[C@@H](CCC(=O)O)C(=O)O)c(Cl)c1 | 10 nM | Active | Active | 8.83 nM |
